Source: patent US20240165043A1, “COMPOSITIONS FOR THE TREATMENT OF A DISEASE OF THE URINARY TRACT AND TREATMENT OF A DISEASE INVOLVING THE INTRACELLULAR DELIVERY OF THE PARTICLE OR A MEDICAMENT CONTAINED THEREIN” (UCL BUSINESS LTD, priority 2018, published 2024)

How the values were obtained:
[1] = system: HBLAK-derived bladder organoids; assay: Cell toxicity assay (LDH release); assay type: cell-based, human; conditions: CapFuran 2 mg/ml; equivalent free nitrofurantoin 200 mg/ml as printed; 60 minutes; N=6
Method: A colorimetric […] (LDH) assay kit (Thermo Scientific) was used to measure potential cell damage from CapFuran or nitrofurantoin. The procedure was carried out as directed by the manufacturer. HBLAK-derived bladder organoids were grown for 14 days then exposed to 1000 μl of culture media (control) or 1000 μl of culture media containing CapFuran 1 mg/ml; CapFuran 2 mg/ml; 100 μg/ml unencapsulated nitrofurantoin; 200 μg/ml Nitrofurantoin; 100 μl of 10× lysis buffer (maximum LDH control); or culture medium containing 10% ultra-pure water (to measure spontaneous LDH release). Experiments were carried out in triplicates. All organoids were subsequently incubated for 60 minutes at […] in 5% CO2. After incubation, 50 μl of medium from the apical chamber of each treated organoid was transferred to 3 wells of a flat-bottomed […] (Corning). […] To quantify the amount of LDH released, the 96 well plate was read using a colorimetric sphectrophotometer (Biochrom EZ Read 400) at an absorbance of 492 nm and 650 nm. Microsoft Excel was used to subtract the background reading from the LDH reading before calculating cytotoxicity in % using the following formula: % Cytotoxicity=Treatment associated LDH release−Spontaneous LDH release×100 Maximum LDH activity−Spontaneous LDH release

[2] = system: human bladder epithelial cells (HBLAK); assay: Cellular uptake of cargo, two-dimensional monolayer; assay type: cell-based; conditions: free FITC at 2.5 mg/mL
Description: Commercially available human bladder epithelial cells (HBLAK, CelINTec), which are a spontaneously immortalised, non-transformed derivative of progenitor cells that retain the ability to differentiate, were supplied in frozen aliquots containing ˜5×10^5 cells at passage 2 and ˜0.5×10^5 at passage 25 respectively. The progenitor cells had been isolated from bladder trigone biopsies from male patients undergoing surgery for benign prostatic hyperplasia. HBLAK cells were used up until passage 40-50.
Thawed cells were seeded (˜300 cell clumps/cm^2) into pre-warmed and equilibrated low-calcium, high-bovine pituitary extract, primary epithelial medium (CnT-Prime, Cell N Tec) in 9 cm polystyrene dishes and incubated at 37° C. in a humidified incubator under 5% CO2. Culture medium was replaced after overnight incubation to remove residual dimethyl sulfoxide (DMSO). Antibiotics were not added to culture medium at any point due to adverse effects on cytodifferentiation, metabolism and morphology. […]
(§1) We performed epi-fluorescence microscopy on an Olympus CX-41 upright microscope, and confocal laser scanning microscopy on Leica SP5 and SP2 microscopes. […] For both still and live imaging, images were processed and analysed using Infinity Capture and Analyze V6.2.0, ImageJ 1.50 h 50 and the Leica Application Suite, Advanced Fluorescence 3.1.0 build 8587 Software.

[3] = system: human urothelial organoid model; assay: Cellular uptake of cargo, three-dimensional bladder organoid; assay type: cell-based; conditions: two hours of treatment; free FITC at equivalent amount (14 ug/mL)
Method: The three-dimensional bladder organoid model has been described (Horsley et al, 2017, https://doi.org/10.1101/152033). Briefly, organoids were created as follows. In preparation for organotypic culture, previously frozen cells were thawed and expanded on 9 cm culture dishes as above. Once 70-80% confluent, the cells were washed briefly with calcium- and magnesium-free phosphate buffered saline (PBS, Sigma-Aldrich) and incubated at 37° C. in ˜3 ml of pre-warmed Accutase solution for 2-5 min. The dishes were lightly tapped and detached cells re-suspended in 7 ml of warm CnT-Prime. After centrifugation at 200×g for 5 min, the supernatant was removed and the pellet re-suspended in fresh CnT-Prime. This cell suspension was counted whilst allowing the cells to equilibrate for 3 min at room temperature. […]
The 3D culture inserts were incubated for 3-5 days until 100% confluent. Confluency was determined through the fluorescent staining of 1 insert and visualisation under epi-fluorescence microscopy (see section below). […]
as §1

Compound | Cytotoxicity (LDH release), mean [1] | FITC staining of cells by free diffusion [2] | FITC penetration through cell layers [3]
O=C1CN(/N=C/c2ccc([N+](=O)[O-])o2)C(=O)N1 [nitrofurantoin] | 6.60% | – | –
fluorescein isothiocyanate [free FITC] | – | faint green staining to all cells | negligible penetration
